Laboratory results reported in patent publication US20250221963A1 (GH RESEARCH IRELAND LIMITED, priority 2022, published 2025).
“And” between values parts separate entries of the source, which are not always exact repeats. Equal values may be shown once.

How the values were obtained:
[1] = test system: patients with postpartum depression (PPD); assay: Clinical trial of inhaled 5-MeO-DMT in postpartum depression; settings: PPD patient
Protocol: The single-arm, open-label clinical trial will involve 15 adult female patients with clinically diagnosed postpartum depression (PPD).
The second dose (12 mg) will only be administered if: • a. […] The 6 mg dose was safe and well-tolerated according to the investigator, • c. Any psychoactive effects (PsE) of the prior dose have subsided, and • d. Pre-dose vital parameters and forced expiratory volume in one second (FEV1) are in normal range, or if outside of the normal range, are not clinically significant according to the investigator. • 3. Similarly, a third dose (18 mg) will only be administered if: • a. […] The 12 mg dose was safe and well-tolerated according to the investigator, and • c. Any PsE of the prior dose have subsided, and • d. Pre-dose vital parameters and forced expiratory volume in one second (FEV1) are in normal range, or if outside of the normal range, are not clinically significant according to the investigator.
The patients will be assessed for a peak psychedelic experience (based on a patient-scored visual analogue scale, the PE scale), sedation, and other endpoints after dosing. Follow-up visits are planned for Day 1, and Day 7 after the dosing day.
The following criteria must be met by all patients considered for clinical trial participation: • 1. Is female and in the age range between 18 and 45 years (inclusive) at screening. • 2. Has a body mass index (BMI) in the range of 18.5 and 35 kg/m^2 (inclusive) at screening. • 3. Meets the trial criteria for PPD as assessed by a trial psychiatrist or registered psychologist: • a. Diagnosis of Major Depressive Disorder without psychotic features, confirmed by the Mini-International Neuropsychiatric Interview (MINI), with peri-partum onset that began no earlier than gestation and no later than the first 4 weeks postpartum. • b. Has a Montgomery-Åsberg Depression Rating Scale (MADRS) total score of equal to or greater than 28 at screening and pre-dose on Day 0. • 6. […] Patients must have a negative pregnancy test at screening and on the pre-test day (Day −1). • 5. Is willing to delay start of other antidepressant or anxiety medication until after the end of the trial at Day 7 and agrees to keep any psychotherapy unchanged during the trial.
A potential patient who meets any of the following key exclusion criteria will be excluded from participation in this trial: • 1. Has, based on history, psychiatric assessment, and evaluation of the MINI, a current or prior diagnosis of bipolar disorder, a manic or hypomanic episode, a psychotic disorder, Major Depressive Disorder (MDD) or other mood disorder with psychotic features, obsessive compulsive disorder, post-traumatic stress disorder (PTSD), autism spectrum disorder, borderline personality disorder, schizophrenia, delusional disorder, paranoid personality disorder, schizoaffective disorder, clinically significant intellectual disability, or any other psychiatric comorbidity that renders the patient unsuitable for the trial according to the investigator's judgment. • 2. Has one or more first or second degree relatives with a current or previously diagnosed bipolar disorder, psychotic disorder or other mood disorder (including MDD) with psychotic features. • 3. Is in the judgement of a trial psychiatrist or registered psychologist, at significant risk for suicide based on history, psychiatric assessment, and evaluation of suicidal ideation and suicidal behaviour based on the Columbia-Suicide Severity Rating Scale (C-SSRS). • 4. Has taken anti-depressive medication within 14 days or 5 half-lives (whichever is longer) prior to dosing (exception: within the last 5 weeks in the case of fluoxetine). • 5.

[2] = test system: Escherichia coli WP2 uvrA pKM101; assay: Bacterial mutation test, Escherichia coli; format: cell-based; settings: up to 5000 μg/plate, absence and presence of S-9
Protocol: These conditions included treatments at concentrations up to 5000 μg/plate (the maximum recommended concentration according to current regulatory guidelines), in the absence and in the presence of a rat liver metabolic activation system (S-9).

[3] = Pharmacokinetics of 5-MeO-DMT and bufotenine after inhalation; format: in vivo, human
Protocol: Blood samples were obtained at 1; 2; 4; 7; 10; 15; 20; 30; 45 min and 1; 1.5; 2; 3; 4 hours after administration.
PK parameters were generated by algebraic analysis of the concentration versus time plots for each individual. The analysis was carried out using the software Phoenix WinNonlin 6.3.

COc1ccc2[nH]cc(CCN(C)C)c2c1 [5-MeO-DMT]
BIMF Adjustment Δ (Day 7) [1]: 1 | BIMF Infant Care Δ (Day 7) [1]: 0 | BIMF Management Δ (Day 7) [1]: 5 | BIMF Mother-Child Interaction Δ (Day 7) [1]: 2 | BIMF Psychological Well-being Δ (Day 7) [1]: 9 | BIMF Self-Care Δ (Day 7) [1]: 4 | BIMF Social Support Δ (Day 7) [1]: 1 | BIMF TOTAL Δ (Day 7) [1]: 13 | ECG (3 hours), safety laboratory analyses (7 days), CADSS (3 hours, 1 day, 7 days) [1]: unremarkable | MADRS response and MADRS remission criteria [1]: fulfilled standard criteria for MADRS response | Reported adverse events (cramping left abdominal pain and headache, Day 0) [1]: mild, short-lasting and resolved spontaneously | Time to clinical remission after administration according to the IDR [1]: ≤ 2 h | Tolerability of the inhalation procedure [1]: well tolerated with no inhalation-related adverse events | Total MADRS improvement ([1]; 2 hr): 24 | Total MADRS score ([1]; 2 hr, baseline 29): 5 | BPRS Tension improvement ([1]; Day 1): 5 | Total MADRS improvement ([1]; Day 1): 29 | Total MADRS score ([1]; Day 1, baseline 29): 0 | BIMF Adjustment % Improvement ([1]; Day 7): 20.00% | BIMF Infant Care % Improvement ([1]; Day 7): 0.00% | BIMF Management % Improvement ([1]; Day 7): 18% and 17.86% | BIMF Mother-Child Interaction % Improvement ([1]; Day 7): 13.33% | BIMF Psychological Well-being % Improvement ([1]; Day 7): 20.45% | BIMF Self-Care % Improvement ([1]; Day 7): 44% and 44.44% | BIMF Social Support % Improvement ([1]; Day 7): 5.88% | BIMF total score improvement ([1]; Day 7): 14% | Total MADRS improvement ([1]; Day 7): 28 | BIMF functional domain Adjustment score ([1]; Day 7, Day 0 score 5, maximum 12): 6 | BIMF item 6 (people in my life that I can trust to care for my baby) score ([1]; Day 7, Day 0 score 6): 6 | BIMF functional domain Self-Care score ([1]; Day 7, Day 0 score 9, maximum 18): 13 | BIMF functional domain Infant Care score ([1]; Day 7, Day 0 score 12, maximum 12): 12 | BIMF functional domain Mother-Child Interaction score ([1]; Day 7, Day 0 score 15, maximum 18): 17 | BIMF functional domain Social Support score ([1]; Day 7, Day 0 score 17, maximum 18): 18 | BIMF functional domain Management score ([1]; Day 7, Day 0 score 28, maximum 36): 33 | BIMF functional domain Psychological Well-being score ([1]; Day 7, Day 0 score 44, maximum 60): 53 | Total MADRS score ([1]; Day 7, baseline 29): 1 | BPRS Tension improvement ([1]; Discharge): 5 | Changes in vital parameters ([1]; shortly after administration): temporary, clinically non-relevant increase in heart rate and blood pressure | Induction of mutation [2]: did not induce mutation | Detectability in the plasma ([3]; after 3 hours, 6, 12, 18 mg): no longer detectable | Accumulation upon repeated administration ([3]; repeated within 1 to 4 hours): No accumulation is observed
